Measurements: the NIST ThermoML archive (doi:10.1021/je800110r)

Conditions: 323.14 K, Liquid, Vibrating tube method

CCCCCCCCCC [decane]
Conditions	mass density [kg/m3]
21395 kPa	724.8
21420 kPa	724.9
21444 kPa	724.9
21473 kPa	724.8
21501 kPa	724.8
21526 kPa	725
21647 kPa	725
22710 kPa	725.7
22733 kPa	725.8
22768 kPa	725.8
22800 kPa	725.9
22832 kPa	725.9
22860 kPa	725.9
22884 kPa	725.9
22916 kPa	725.8
22948 kPa	726
22977 kPa	726.1
23013 kPa	726
23034 kPa	726.1
23071 kPa	726.1
23103 kPa	726.1
23124 kPa	726.1
23149 kPa	726.2
23170 kPa	726.2
23191 kPa	726.2
23219 kPa	726.2
23256 kPa	726.1
23294 kPa	726.2
23332 kPa	726.3
23357 kPa	726.2
23391 kPa	726.2
23412 kPa	726.2
23442 kPa	726.3
23475 kPa	726.4
23509 kPa	726.3
23539 kPa	726.3
23578 kPa	726.5
23612 kPa	726.3
23710 kPa	726.6
23736 kPa	726.5
23762 kPa	726.5
23806 kPa	726.6
23832 kPa	726.7
23854 kPa	726.6
23881 kPa	726.6
23912 kPa	726.7
23938 kPa	726.7
23970 kPa	726.7
23996 kPa	726.7
24633 kPa	727.3
24707 kPa	727.3
24732 kPa	727.3
24765 kPa	727.4
24799 kPa	727.2
24832 kPa	727.4
24861 kPa	727.4
24899 kPa	727.4
24942 kPa	727.4
24979 kPa	727.4
25000 kPa	727.5
25022 kPa	727.4
25061 kPa	727.6
25103 kPa	727.6
25129 kPa	727.5
25160 kPa	727.6
25190 kPa	727.7
25216 kPa	727.6
25251 kPa	727.7
25291 kPa	727.6
25325 kPa	727.7
25361 kPa	727.8
25383 kPa	727.8
25422 kPa	727.7
25458 kPa	727.8
25493 kPa	727.9
25521 kPa	727.8
25556 kPa	727.8
25593 kPa	727.9
25624 kPa	727.9
25670 kPa	727.9
25706 kPa	728
25742 kPa	727.9
25783 kPa	728
25828 kPa	728
26192 kPa	728.4
26343 kPa	728.4
26723 kPa	728.6
26758 kPa	728.8
26793 kPa	728.7
26842 kPa	728.8
26872 kPa	728.8
26912 kPa	728.8
26952 kPa	728.8
26992 kPa	728.9
27043 kPa	729
27362 kPa	729.1
27409 kPa	729.2
27440 kPa	729.2
27472 kPa	729.2
27524 kPa	729.4
27568 kPa	729.3
27605 kPa	729.3
27657 kPa	729.4
27684 kPa	729.3
27758 kPa	729.5
27796 kPa	729.5
27882 kPa	729.5
27920 kPa	729.5
27958 kPa	729.5
27997 kPa	729.6
28042 kPa	729.7
28096 kPa	729.7
28135 kPa	729.7
28185 kPa	729.7
28230 kPa	729.8
28317 kPa	729.9
28358 kPa	729.8
28393 kPa	729.7
28457 kPa	730.1
28496 kPa	730
28541 kPa	730
28571 kPa	730.1
28605 kPa	730
28640 kPa	730.1
28675 kPa	730.1
28714 kPa	730.1
28744 kPa	730.2
28779 kPa	730.1
28819 kPa	730.2
28844 kPa	730.2
28887 kPa	730.3
28913 kPa	730.3
28938 kPa	730.2
28968 kPa	730.3
28999 kPa	730.4
29030 kPa	730.4
29065 kPa	730.4
